Source: ChEMBL document CHEMBL5096164, “In Vivo Profiling of a Natural Alkaloid, Anatabine, in Rodents: Pharmacokinetics and Anti-Inflammatory Efficacy” (J Nat Prod, 2021)
Active and inactive are the calls of the source. The calls are words filed in the database; no cut-off is given here.

Key:
Mus musculus [1] = test: Antiinflammatory activity LPS induced mouse model assessed as reduction in IL-1 beta at 1 to 5 mg/kg, ip preincubated for 1 hr followed by LPS stimulation and measured after 2 hrs by luminex xMAP bead based assay; assay type: functional, organism-based; conditions: dose 1-5 mg/kg, time 3.0 hrs
Rattus norvegicus [2] = test: Antiinflammatory activity in carrageenan-induced paw edema rat model assessed as recovery of adverse effect at tremor at 5 mg/kg, ip or 20 mg/kg administered daily via whole body inhalation; assay type: functional, organism-based
[3] = Drug uptake in rat aerosol at medium dose via inhalation measured for 30 mins; assay type: ADME; conditions: in vivo, inhaled_or_intranasal, 0.5 h, route inh
[4] = AUC in rat at 2.73 mg/kg via inhalation; assay type: ADME, organism-based; parameters: dose 2.73 mg/kg, route inh; conditions: in vivo, inhaled or intranasal
Mus musculus [5] = test: Antiinflammatory activity in ip /LPS induced mouse model assessed as reduction in tumor necrosis factor alpha level in plasma preincubated for 1 hr followed by LPS stimulation and measured after 2 hrs by ELISA method; assay type: functional, organism-based; conditions: dose 1-5 mg/kg, DDE = dose-dependent effect
Mus musculus [6] = test: Antiinflammatory activity LPS induced mouse model assessed as reduction in IL-9 at 1 to 5 mg/kg, ip preincubated for 1 hr followed by LPS stimulation and measured after 2 hrs by luminex xMAP bead based assay; assay type: functional, organism-based; conditions: dose 1-5 mg/kg, time 3.0 hrs
[7] = Half life in C57BL/6 mouse plasma at 2 mg/kg, ip measured after 3 to 240 mins by LC-MS/MS analysis; assay type: ADME, organism-based; conditions: time 3-240 min
[8] = Drug uptake in MOG (35 to 55 residues)-induced experimental autoimmune encephalomyelitis unimmunized mouse in plasma at 50 microg/L by LC-MS/MS analysis; assay type: ADME; conditions: dose 50 µg/L
[9] = Tmax in C57BL/6 plasma at 2 mg/kg, ip measured after 3 to 240 mins by LC-MS/MS analysis; assay type: ADME, organism-based; conditions: C57BL/6, mouse, time 3-240 min
[10] = Cmax in Wistar rat plasma at 2 mg/kg, iv administered as bolus dose measured after 5 to 360 mins by LC-MS/MS analysis; assay type: ADME, organism-based; parameters: dose 2 mg/kg, time upper 360 min, time lower 5 min, route iv
Mus musculus [11] = test: Antiinflammatory activity LPS induced mouse model assessed as reduction in interferon gamma induced protein 10 at 1 to 5 mg/kg, ip preincubated for 1 hr followed by LPS stimulation and measured after 2 hrs by luminex xMAP bead based assay; assay type: functional, organism-based; conditions: dose 1-5 mg/kg, time 3.0 hrs
[12] = Bioavailability in rat at 2.73 mg/kg via inhalation; assay type: ADME, organism-based; conditions: in vivo, inhaled or intranasal, route inh
[13] = Antiinflammatory activity in MOG (35 to 55 residues)-induced experimental autoimmune encephalomyelitis mouse aerosol assessed as reduction in clinical score at 25 microg/L measured on 16 day (reference value: 2.0); assay type: ADME; conditions: inhaled_or_intranasal, 384 h, dose 25 µg/L
[14] = AUC in rat at 0.40 mg/kg via inhalation; assay type: ADME, organism-based; parameters: dose 0.4 mg/kg, route inh; conditions: in vivo, inhaled or intranasal, 0.4 mg/kg
Mus musculus [15] = test: Antiinflammatory activity in ip induced Wistar mouse model of carrageenan-induced paw edema assessed as reduction in paw thickness administered 10 mins prior to carrageenan induction and measured upto 5 hrs; assay type: functional, organism-based; conditions: dose 1-5 mg/kg, time 310.0 min, DDE = dose-dependent effect
[16] = Clearance in Wistar rat plasma at 5 mg/kg, ip administered as bolus dose measured after 5 to 360 mins by LC-MS/MS analysis; assay type: ADME, organism-based; conditions: time 5-360 min
Mus musculus [17] = test: Antiinflammatory activity LPS induced mouse model assessed as reduction in IL-5 at 1 to 5 mg/kg, ip preincubated for 1 hr followed by LPS stimulation and measured after 2 hrs by luminex xMAP bead based assay; assay type: functional, organism-based; conditions: dose 1-5 mg/kg, time 3.0 hrs
Mus musculus [18] = test: Antiinflammatory activity LPS induced mouse model assessed as reduction in macrophage inflammatory protein-1 beta at 1 to 5 mg/kg, ip preincubated for 1 hr followed by LPS stimulation and measured after 2 hrs by luminex xMAP bead based assay; assay type: functional, organism-based; conditions: dose 1-5 mg/kg, time 3.0 hrs
Rattus norvegicus [19] = test: Antiinflammatory activity in carrageenan-induced paw edema rat model assessed as recovery of adverse effect at hypothermia at 5 mg/kg, ip or 20 mg/kg administered daily via whole body inhalation; assay type: functional, organism-based
Mus musculus [20] = test: Antiinflammatory activity LPS induced mouse model assessed as reduction in granulocyte-macrophage colony stimulating factor at 1 to 5 mg/kg, ip preincubated for 1 hr followed by LPS stimulation and measured after 2 hrs by luminex xMAP bead based assay; assay type: functional, organism-based; conditions: dose 1-5 mg/kg, time 3.0 hrs
Rattus norvegicus [21] = test: Antiinflammatory activity in carrageenan-induced paw edema rat model assessed as inhibition of paw swelling at 5.34 mg/kg via inhalation measured at 2 hrs relative to control; assay type: functional; parameters: scale not given: the % may be the effect or the level left; conditions: route inh
Rattus norvegicus [22] = test: Antiinflammatory activity in carrageenan-induced paw edema rat model assessed as inhibition of paw swelling at 5 mg/kg, ip measured at 2 hrs relative to control; assay type: functional; parameters: scale not given: the % may be the effect or the level left
[23] = Tmax in C57BL/6 brain at 2 mg/kg, ip measured after 3 to 240 mins by LC-MS/MS analysis; assay type: ADME, organism-based; conditions: C57BL/6, mouse, time 3-240 min
[24] = AUC in C57BL/6 plasma at 2 mg/kg, ip measured after 3 to 240 mins by LC-MS/MS analysis; assay type: ADME, organism-based; parameters: time 3-240 min, dose 2 mg/kg, route ip; conditions: C57BL/6, mouse
[25] = Bioavailability in rat at 0.06 mg/kg via inhalation; assay type: ADME, organism-based; conditions: in vivo, inhaled or intranasal, route inh
[26] = AUC in C57BL/6 brain at 2 mg/kg, ip measured after 3 to 240 mins by LC-MS/MS analysis; assay type: ADME, organism-based; parameters: time 3-240 min, dose 2 mg/kg, route ip; conditions: C57BL/6, mouse
Mus musculus [27] = species on record: Mus musculus; test: Antiinflammatory activity in MOG (35 to 55 residues)-induced experimental autoimmune encephalomyelitis mouse aerosol assessed as attenuation of body weight loss at 50 microg/L; assay type: functional, organism-based; conditions: dose 50.0 µg/L
[28] = Clearance in C57BL/6 mouse plasma at 2 mg/kg, ip measured after 3 to 240 mins by LC-MS/MS analysis; assay type: ADME, organism-based; conditions: time 3-240 min
[29] = Cmax in C57BL/6 brain at 2 mg/kg, ip measured after 3 to 240 mins by LC-MS/MS analysis; assay type: ADME, organism-based; parameters: time upper 240 min, time lower 3 min, dose 2 mg/kg, route ip; conditions: C57BL/6, mouse
Mus musculus [30] = test: Antiinflammatory activity ip /LPS induced mouse model assessed as upregulation of IL-10 level preincubated for 1 hr followed by LPS stimulation and measured after 2 hrs by luminex xMAP bead based assay; assay type: functional, organism-based; conditions: dose 1-5 mg/kg, time 3.0 hrs, DDE = dose-dependent effect
[31] = Drug concentration in carrageenan-induced paw edema in rat respiratory tract at 254.3 microg/L via inhalation measured for 60 mins; assay type: ADME; conditions: inhaled or intranasal, route inh, dose 254.3 µg/L, read-out: Drug uptake
[32] = Drug uptake in rat aerosol at 261.4 microg/L via inhalation measured for 30 mins; assay type: ADME; conditions: in vivo, inhaled_or_intranasal, 0.5 h, dose 261.4 µg/L
[33] = Drug uptake in MOG (35 to 55 residues)-induced experimental autoimmune encephalomyelitis immunized mouse in plasma at 50 microg/L by LC-MS/MS analysis; assay type: ADME; conditions: dose 50 µg/L
[34] = Drug uptake in MOG (35 to 55 residues)-induced experimental autoimmune encephalomyelitis mouse aerosol at 50 microg/L by LC-MS/MS analysis; assay type: ADME; conditions: in vivo, inhaled_or_intranasal, dose 50 µg/L
[35] = Cmax in Wistar rat plasma at 5 mg/kg, ip administered as bolus dose measured after 5 to 360 mins by LC-MS/MS analysis; assay type: ADME, organism-based; parameters: dose 5 mg/kg, time upper 360 min, time lower 5 min, route ip
[36] = Drug uptake in MOG (35 to 55 residues)-induced experimental autoimmune encephalomyelitis unimmunized mouse plasma at 25 microg/L by LC-MS/MS analysis; assay type: ADME; conditions: dose 25 µg/L

## C1=CCC(c2cccnc2)NC1 (stereo unspecified)
Mus musculus [1]
  Activity: Active
Rattus norvegicus [2]
  Activity: Active
[3]
  Drug uptake: 25 µg/L
[4]
  AUC: 3060 ng·h/mL
Mus musculus [5]
  Activity: Dde
Mus musculus [6]
  Activity: Active
[7]
  half-life: 12.6 min
[8]
  Cp: 1202.5 ng/mL
[9]
  Tmax: 1.8 min
[10]
  Cmax: 1180 ng/mL
Mus musculus [11]
  Activity: Active
[12]
  bioavailability: 56.4%
[13]
  Activity: 1.1
[14]
  AUC: 637 ng·h/mL
Mus musculus [15]
  Activity: Dde
[16]
  CL/F: 8.11 mL/min/kg
Mus musculus [17]
  Activity: Active
Mus musculus [18]
  Activity: Active
Rattus norvegicus [19]
  Activity: Active
Mus musculus [20]
  Activity: Active
Rattus norvegicus [21]
  Activity: 39.6%
Rattus norvegicus [22]
  Activity: 46.1%
[23]
  Tmax: 7.2 min
[24]
  AUC: 430 ng·h/mL
[25]
  bioavailability: 76.5%
[26]
  AUC: 1490 ng·h/mL
Mus musculus [27]
  Activity: Active
[28]
  CL/F: 78.6 mL/min/kg
[29]
  Cmax: 3380 ng/mL
Mus musculus [30]
  Activity: Dde
[31]
  concentration at 1 h: 5.34 ng/mL
[32]
  Drug uptake: 250 µg/L
[33]
  Cp: 1139.7 ng/mL
[34]
  Drug uptake: 50.6 ng/mL
[35]
  Cmax: 2730 ng/mL
[36]
  Cp: 531.5 ng/mL
